This passage reports IC50 results from PMC6150197, “NeoBOMB1, a GRPR-Antagonist for Breast Cancer Theragnostics: First Results of a Preclinical Study with [^67Ga]NeoBOMB1 in T-47D Cells and Tumor-Bearing Mice” (Molecules : A Journal of Synthetic Chemistry and Natural …, 2017).

As usually defined, the IC50 is the concentration that inhibits the measured activity by half.

Read-outs that look alike come from different tables or passages of the source. Square brackets hold non-standard residues; d marks the D form. * marks the point of attachment. DOTA = O=C(O)CN1CCN(CC(=O)O)CCN(CC(=O)*)CCN(CC(=O)O)CC1

The test addresses T1, GRPR (Homo sapiens, UniProt P30550).
T1 construct: Human ductal breast carcinoma T-47D cells endogenously expressing the GRPR were used in all biological assays; endogenous in cells; host or cells: T-47D human ductal breast carcinoma cells (live, adherent, 4 °C)
The test can be described thus: Competition binding against [^125I-Tyr^4]BBN in T-47D cells.

T1 sequence (P30550 whole entry): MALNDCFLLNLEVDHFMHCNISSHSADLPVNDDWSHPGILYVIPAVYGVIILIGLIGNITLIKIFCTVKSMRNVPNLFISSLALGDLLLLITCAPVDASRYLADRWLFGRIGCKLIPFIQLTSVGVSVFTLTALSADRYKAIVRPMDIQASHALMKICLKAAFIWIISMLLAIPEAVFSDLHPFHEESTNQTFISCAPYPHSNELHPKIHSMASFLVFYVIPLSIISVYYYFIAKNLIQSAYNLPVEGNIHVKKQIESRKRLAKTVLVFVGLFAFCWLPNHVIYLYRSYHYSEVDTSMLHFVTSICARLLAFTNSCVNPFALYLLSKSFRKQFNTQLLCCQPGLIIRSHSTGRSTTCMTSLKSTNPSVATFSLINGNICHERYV
Description: Methionine was added to the purified radioligand solution to prevent re-oxidation of Met^14 to the corresponding sulfoxide and the resulting stock solution in 0.1% BSA-PBS was kept at −20 °C; aliquots thereof were used for competition binding assays (specific activity of 2.2 Ci/μmol). Samples were measured for radioactivity in an automatic well-type gamma counter (NaI(Tl)] crystal, Canberra Packard Auto-Gamma 5000 series instrument, Schwadorf, Austria).
Human ductal breast carcinoma T-47D cells endogenously expressing the GRPR were used in all biological assays [14, 22, 23]. Cells were cultured in RPMI supplemented with 10% FBS, 100 U/mL penicillin and 100 µg/mL streptomycin, and kept in a controlled humidified atmosphere containing 5% CO2 at 37 °C. Passages were performed weekly using a trypsin/EDTA (0.05%/0.02% w/v) solution.
Cells were seeded in 12-well plates 24 h in advance (0.6 × 10^6 cells per well). On the day of the experiment, cells were placed on ice and washed with chilled washing medium (2 × 1 mL, RPMI supplemented with 1% heat inactivated FBS). […] Lysates were collected, combined and counted for their radioactivity content in a γ-counter. The IC50 values were calculated adopting nonlinear regression according to a one-site model applying the PRISM^TM 2 program (GraphPad Software, San Diego, CA, USA). […]

In the case of `CC(C)CC(CC(C)C)NC(=O)[C@H](Cc1cnc[nH]1)NC(=O)CNC(=O)[C@@H](NC(=O)[C@H](C)NC(=O)[C@H](Cc1c[nH]c2ccccc12)NC(=O)[C@H](CCC(N)=O)NC(=O)[C@@H](Cc1ccccc1)NC(=O)COCC(=O)Nc1ccc(CNC(=O)CN2CCN(CC(=O)O)CCN(CC(=O)O)CCN(CC(=O)O)CC2)cc1)C(C)C` [NeoBOMB1, DOTA-p-aminomethylaniline-diglycolic acid-DPhe-Gln-Trp-Ala-Val-Gly-His-NH-CH[CH2-CH(CH3)2]2], the IC50 came to 2.2 ± 0.2 nM.

For “[^natGa]NeoBOMB1: NeoBOMB1 metalated with ^natGa ({DOTA-p‑aminomethylaniline-diglycolic acid}-[dF]QWAVGH-{2,6‑dimethylheptan‑4‑yl amide}; also: DOTA chelating natGa(III))”, under “live T-47D cells, 3 h incubation at 4 °C, one-site model, mean ± sd, n = 3 (n = 5 for [Tyr^4]BBN), in triplicate, read-out: IC50, displacement of [^125I-Tyr^4]BBN from GRPR-sites on T-47D cells”, the IC50 worked out at 2.5 ± 0.2 nM.
